Data taken from patent US20050096360A1, “Inhibitors of semicarbazide-sensitive amine oxidase (SSAO) and VAP-1 mediated adhesion useful for treatment of diseases” (priority 2003, published 2005).
Where a name gives a salt, the structure may show the parent alone.

Assays:
[1] = molecular target: T1, SSAO activity in rat aorta and lung (Rattus norvegicus, UniProt O08590); experiment: In vivo inhibition of SSAO after single oral dose, radioactive assay; details: 4 hrs after treatment
T1 construct: the animals were euthanized and their aortas and lungs removed and frozen in liquid nitrogen; from tissue; host or cells: aorta and lung of female Sprague Dawley rats
T1 sequence (O08590 1-763): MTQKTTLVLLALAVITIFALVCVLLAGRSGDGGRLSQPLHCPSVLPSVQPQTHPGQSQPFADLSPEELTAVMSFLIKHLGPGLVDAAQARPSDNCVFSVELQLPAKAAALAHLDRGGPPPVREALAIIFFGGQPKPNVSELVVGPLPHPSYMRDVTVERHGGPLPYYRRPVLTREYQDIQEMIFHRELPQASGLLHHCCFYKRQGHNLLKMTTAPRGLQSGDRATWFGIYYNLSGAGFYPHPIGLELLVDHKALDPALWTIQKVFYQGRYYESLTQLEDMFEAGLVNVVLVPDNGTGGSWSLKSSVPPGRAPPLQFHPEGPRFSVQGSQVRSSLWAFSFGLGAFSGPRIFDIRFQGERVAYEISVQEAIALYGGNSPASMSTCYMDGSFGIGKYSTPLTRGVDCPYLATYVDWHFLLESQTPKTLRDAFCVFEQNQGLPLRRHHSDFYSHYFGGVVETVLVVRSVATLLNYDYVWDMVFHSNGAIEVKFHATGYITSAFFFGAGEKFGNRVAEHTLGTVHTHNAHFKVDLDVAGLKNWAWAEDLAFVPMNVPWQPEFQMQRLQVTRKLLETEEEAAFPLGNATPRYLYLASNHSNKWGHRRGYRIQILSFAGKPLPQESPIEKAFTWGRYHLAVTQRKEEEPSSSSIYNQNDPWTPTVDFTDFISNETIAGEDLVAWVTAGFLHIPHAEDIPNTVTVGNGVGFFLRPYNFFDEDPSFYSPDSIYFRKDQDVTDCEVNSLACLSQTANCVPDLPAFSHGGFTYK
Experimental: In vivo inhibition of SSAO was assessed in rat aorta and lungs, two of the tissues where SSAO activity is highest. Six week old female Sprague Dawley rats were administered 0, 0.1, 1, 10 and 50 mg/kg of the compound of example 8 in 2.5 ml/kg PBS by oral gavage. Four hours after compound administration the animals were euthanized and their aortas and lungs removed and frozen in liquid nitrogen. Tissues were homogenized in 0.1 M potassium phosphate pH 7.8 buffer (30 ml/g for aorta and 20 ml/g for lung) and centrifuged at 1000×g for 15 min. Supernatants were collected and used in the radioactive assay following the protocol described by Lizcano J. M. et al. (1998) Biochem. J. 331:69. Enzymatic reactions were initiated by incubating a 200 μl aliquot of the tissue homogenate with 20 μl of 0.4 mM ^14C-labeled benzylamine substrate (6 mCi/mmol specific activity, Pharmacia) for 30 min at RT. The assay was stopped by addition of 100 μl of 2 M citric acid, the assay volume was extracted with 5 ml toluene:ethyl acetate (1:1) containing 0.6% (w/v) 2,5-diphenyloxdazole (PPO), and an aliquot of the organic layer was counted by liquid scintillation. […] These inhibitors were added to the tissue supernatant prior to addition of benzylamine.

[2] = tested on: collagen-induced arthritis (CIA) in mice; experiment: Antibody-mediated collagen-induced arthritis in mice; type: in vivo; details: 20 mg/kg i.p. twice daily
Experimental: The murine CIA model used in this study is called antibody-mediated CIA, and can be induced by i.v. injection of a combination of different anti-type II collagen monoclonal antibodies (Terato K., et al. (1995). Autoimmunity. 22:137).
In this example, arthrogen-collagen-induced arthritis antibody kits were purchased from Chemicon International (Temecula, Calif.) and arthritis was induced using the manufacturer's protocol. Mice were injected i.v. with a cocktail of 4 anti-collagen Type II monoclonal antibodies (0.5 mg each) on day 0, followed by i.p. injection of 25 μg lipopolysaccharide (LPS) on day 2. Mice develop swollen wrists, ankles, and digits 3-4 days after LPS injection, with disease incidence of 90% by day 7. Severity of arthritis in each limb was scored for 12 days as follows: 0=normal; 1=mild redness, slight swelling of ankle or wrist; 2=moderate redness and swelling of ankle or wrist; 3=severe redness and swelling of some digits, ankle and paw; 4=maximally inflamed limb. Animals were divided in 3 groups of 6 animals: vehicle, methotrexate (MTX)-treated, and compound-treated. Animals in the vehicle group were injected i.p. with phosphate buffer saline (PBS), twice daily for 12 days (starting on day 0). MTX (3 mg/kg) was administered i.p. starting on day 0 and continuing every other day (Mon., Weds., Fri.) for the duration of the experiment.
For each of the two sets of data (arthritis score and paw swelling), a repeated measure analysis was performed to assess the treatment effect.
The relative RT-PCR approach was used. To perform this experiment, a kit from Ambion (USA) was used that employs 18S ribosomal RNA (rRNA) as an internal control. In addition to the rRNA primers, the kit also provides specific primers for the amplification of the different cytokines to be analyzed. […] At the end of the study, animals were euthanized and the right hind paws were extracted and frozen. Total RNA was isolated using 1 ml of Trizol reagent (Invitrogen, USA) per 50-100 mg tissue according to the manufacturer's instructions. […]

[3] = tested on: relapsing EAE in SJL/J mice; experiment: Chronic relapsing EAE (model of chronic multiple sclerosis); type: in vivo; details: 10 mg/kg i.p. bid for 53 days
Experimental: An analysis of the use of VAP-1/SSAO inhibitors to treat inflammatory diseases of the CNS is performed through the use of a relapsing experimental autoimmune encephalomyelitis model (EAE) in SJL/J mice.
To examine the role of VAP-1 as a major regulator of lymphocyte recruitment to the CNS, VAP-1/SSAO inhibitor was evaluated in a chronic relapsing EAE model.
Then animals were monitored for signs of paralysis according to a 0-5 scale of scoring system as follows: • 0.5 partial tail weakness • 1 limp tail or waddling gait with tail tonicity; • 1.5 waddling gait with partial tail weakness • 2 waddling gait with limp tail (ataxia); • 2.5 ataxia with partial limb paralysis; • 3 full paralysis of one limb; • 3.5 full paralysis of one limb with partial paralysis of second limb; • 4 full paralysis of two limbs; • 4.5 moribund; • 5 death.
The results are expressed as mean clinical score (FIG. 9A), % incidence (number of mice with any paralysis/10 mice) (FIG. 9B), % mice with chronic disease (mice with at least one relapse) (FIG. 9C), and cumulative total number of relapses (FIG. 9D).

[4] = tested on: oxazolone-induced colitis in SJL/J mice
Experimental: Oxazolone colitis is induced as described (Fuss I. J. et al. (2002) J. Immunol. 168: 900). Briefly, mice are pre-sensitized by skin epicutaneous application of 3% oxazolone (4-ethoxymethylene-2-phenyl-2oxazolin-5-one, Sigma) in 100% EtOH (150 μl) on day 0, followed by intrarectal administration of 1% oxazolone in 50% EtOH (100 μl) to anesthetized SJL/J male mice on day 5 through a 3.5 F catheter inserted 4 cm proximal to the anal verge. Mice are divided in three treatment groups and injected i.p. twice a day with: PBS and a compound of the invention. Injections are initiated at day 0 and are continued through day 7 or the end of the study.
A study was carried out using the protocol in Example 20 for oxazolone-induced colitis. Injections were initiated at day 0 and were continued through the end of the study. Disease progression was evaluated for 12 days (6 days after intrarectal administration) by monitoring survival rates and body weight, as well as by macroscopic evidence of colitis (i.e. rectal prolapse, colon size, colon weight). (2-phenylallyl)hydrazine was administered at 10 mg/kg, i.p. twice a day, starting on the day of skin pre-sensitization (day 0). […] Kaplan-Meyer survival curves and unpaired t tests were calculated using GraphPad Prism software (San Diego, Calif.).
Thus, animals from a similar study were sacrificed seven days after initial sensitization and their colons removed and fixed in […]. Tissue processing and analysis were performed blindly at a contract laboratory (Pathology Associates, Frederick, Md.). Briefly, after paraffin embedding 5 μm sections were cut and stained with hematoxylin and eosin. Three cross sections were taken from each animal at 1 cm (section 1), 3 cm (section 2), and 6 cm (section 3) from the anus. The degrees of ulceration, inflammation (in mucosa, submucosa, serosa, and outer muscular layers) and epithelial injury (including mucosal and submucosal abscess, submucosal fibrosis, glandular distortion and mucosal and submucosal edema/hemorrhage), were graded semiquantitatively as 0—absent; 1—minimal; 2—mild; 3—moderate; 4—marked. […] Kaplan-Meyer survival curves were calculated using GraphPad Prism software (San Diego, Calif.).

[5] = 10 mg/kg i.p. twice a day from day 0, vs vehicle
[6] = day 7, 20 mg/kg/day from day 0, section 2

Row | Compound | ED50, in vivo inhibition of SSAO activity in aorta ([1]; rat aorta) [mg/kg] | ED50, in vivo inhibition of SSAO activity in lung ([1]; rat lung) [mg/kg] | final arthritis score ([2]; day 0-11, p=0.0046 vs PBS) | paw swelling ([2]; day 0-11, p=0.0060 vs PBS) | levels of TNFα mRNA in the paws (relative RT-PCR, TNFα:18S rRNA) ([2]; right hind paws at end of study) | cumulative number of relapses ([3]; p<0.0001 vs buffer) | incidence of chronic disease (mice with at least one relapse) ([3]; p<0.0001 vs buffer) | overall clinical severity ([3]; p<0.005 vs buffer) | body weight loss [4, 5] | survival rates [4, 5] | inflammatory index (histology) [4, 6] | ulceration index (histology) [4, 6]
1 | C=C(CNN)c1ccc(F)cc1.Cl [Example 8, N-[2-(4′-fluorophenyl)-allyl]-hydrazine Hydrochloride] | 5 | 0.72 | – | – | – | – | – | – | – | – | – | –
2 | C=C(CNN)c1ccccc1 [Example 2, Hydrochloride] | – | – | clearly reduced | clearly reduced | able to reduce | statistically significant reduction | significant lower | statistically significant reduction | significantly improved | significantly improved | significant effect | significant effect
